Results published in US20260176279A1, “DUAL RAF AND TUBULIN INHIBITORS AND METHODS OF USE THEREOF” (Deciphera Pharmaceuticals, LLC, priority 2023, published 2026).
Read-outs that look alike come from different tables or passages of the source.

What was measured:
[1] = molecular target: T1, B-Raf kinase (Homo sapiens, UniProt P15056); assay: Biochemical Assay for B-Raf (coupled pyruvate kinase/lactate dehydrogenase assay)
T1 construct: GST (N); purchased Sigma

[2] = molecular target: T2, C-Raf kinase (Homo sapiens, UniProt P04049, Y340D/Y341D); assay: Biochemical Assay for C-Raf (coupled pyruvate kinase/lactate dehydrogenase assay)
T2 construct: C-Raf residues 306-end; Y340D, Y341D with N-; GST (N); purchased Eurofins
T2 sequence (P04049 307-648 Y340D/Y341D): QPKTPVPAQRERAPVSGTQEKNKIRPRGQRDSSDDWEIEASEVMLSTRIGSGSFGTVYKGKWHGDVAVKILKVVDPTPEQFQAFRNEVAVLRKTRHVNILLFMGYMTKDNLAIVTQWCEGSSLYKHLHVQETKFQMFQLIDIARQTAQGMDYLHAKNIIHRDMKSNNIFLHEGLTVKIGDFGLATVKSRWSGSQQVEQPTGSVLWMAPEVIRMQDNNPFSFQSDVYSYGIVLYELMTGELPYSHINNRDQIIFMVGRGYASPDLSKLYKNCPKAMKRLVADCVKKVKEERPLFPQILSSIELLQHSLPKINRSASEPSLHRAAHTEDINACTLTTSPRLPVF

[3] = tested on: MiaPaca-2 cells; assay: MiaPaca-2 Cell Proliferation Assay; type: cell-based; conditions: Homo sapiens, MIA PaCa-2
Method: MiaPaca-2 cells (catalog #CRL-1420) are obtained from the American Type Culture Collect (ATTC, Manassas, VA). Briefly, cells were grown in DMEM supplemented with 10% characterized fetal bovine serum (Invitrogen, Carlsbad, CA), 2.5% New Zealand sourced horse serum and 1% Penicillin/Streptomycin/L-Glutamine at 37° C., 5% CO2, and 95% humidity. Cells are expanded until reaching 70-95% confluency at which point they are sub-cultured or harvested for assay use. For assays completed in 96-well plates, a serial dilution of test compound is dispensed into a 96-well black clear bottom plate in triplicate. Three thousand cells are added per well in 200 μL complete growth medium in the 96-well plate. Plates are incubated for 67 to 72 h at 37° C., 5% CO2, and 95% humidity. At the end of the incubation, 40 μL of a […] solution of resazurin (Sigma, St. Louis, MO) in PBS is added to each well of the plate and plates are incubated for an additional 5 to 6 hours at 37° C., 5% CO2, and 95% humidity. For 384-well assays, a threefold, 8-point serial dilution of compound was spotted column wise into a 384 well black, clear bottom, tissue culture treated plate using the Beckman Coulter Echo 650. Likewise, a threefold, 8-point serial dilution of cobimetinib was spotted row wise into the 384 well black, clear bottom plate containing compound. DMSO concentration was constant across all wells at 0.4%. Seven hundred fifty cells are added per well in 50 μL complete growth medium in each 384-well plate. Plates are incubated for 67 to 72 h at 37° C., 5% CO2, and 95% humidity. At the end of the incubation, 10 μL of a 440 μM solution of resazurin (Sigma, St. Louis, MO) in PBS is added to each well of the plate and plates are incubated for an additional 4 to 6 h at 37° C., 5% CO2, and 95% humidity. Plates are read on a Synergy2 or equivalent reader (Biotek, Winooski VT) using an excitation of 540 nm and an emission of 600 nm. Data is analyzed using Prism software (Graphpad, San Diego, CA) to calculate IC50 values.

[4] = tested on: HCT-116 cells; assay: HCT-116 Cell Proliferation Assay; type: cell-based; conditions: Homo sapiens
Method: HCT-116 cells (catalog #CCL-247) are obtained from the American Type Culture Collect (ATCC, Manassas, VA). Briefly, cells are grown in McCoy's 5A supplemented with 10% characterized fetal bovine serum (Invitrogen, Carlsbad, CA) and 1% Penicillin/Streptomycin/L-Glutamine at 37° C., 5% CO2, and 95% humidity. Cells are expanded until reaching 70-95% confluency at which point they are sub-cultured or harvested for assay use. A serial dilution of test compound is dispensed into a 384-well black clear bottom plate in triplicate. 375 cells are added per well in 50 μL complete growth medium in the 384-well plate. Plates are incubated for 67 to 72 h at 37° C., 5% CO2, and 95% humidity. At the end of the incubation, 40 μL of a […] solution of resazurin (Sigma, St. Louis, MO) in PBS is added to each well of the plate and plates are incubated for an additional 4 to 5 hours at 37° C., 5% CO2, and 95% humidity. Plates are read on a Synergy2 or equivalent reader (Biotek, Winooski, VT) using an excitation of 540 nm and an emission of 600 nm. Data is analyzed using Prism software (Graphpad, San Diego, CA) to calculate IC50 values.

[5] = tested on: HPAF-II cells; assay: HPAF-II Cell Proliferation Assay; type: cell-based; conditions: Homo sapiens, HPAF-II; Table 4; read-out: HPAF-II IC50
Method: HPAF-II cells (catalog #CRL-1997) are obtained from the American Type Culture Collect (ATCC, Manassas, VA). Briefly, cells are grown in Minimum Essential Media supplemented with 10% characterized fetal bovine serum (Invitrogen, Carlsbad, CA) and 1% Penicillin/Streptomycin/L-Glutamine at 37° C., 5% CO2, and 95% humidity. Cells are expanded until reaching 70-95% confluency at which point they are sub-cultured or harvested for assay use. A serial dilution of test compound is dispensed into a 384-well black clear bottom plate in triplicate. 750 cells are added per well in 50 μL complete growth medium in the 384-well plate. Plates are incubated for 115 to 120 h at 37° C., 5% CO2, and 95% humidity. At the end of the incubation, 40 μL of a […] solution of resazurin (Sigma, St. Louis, MO) in PBS is added to each well of the plate and plates are incubated for an additional 18 to 24 h at 37° C., 5% CO2, and 95% humidity. Plates are read on a Synergy2 or equivalent reader (Biotek, Winooski, VT) using an excitation of 540 nm and an emission of 600 nm. Data is analyzed using Prism software (Graphpad, San Diego, CA) to calculate IC50 values.

[6] = Table 1, inhibition of biochemical activity, read-out: BRAF
[7] = Table 1, inhibition of biochemical activity, read-out: CRAF
[8] = Table 2, inhibition of cell proliferation, read-out: MiaPaca-2
[9] = Table 2, inhibition of cell proliferation, read-out: HCT-116

T1 sequence (P15056 416-766): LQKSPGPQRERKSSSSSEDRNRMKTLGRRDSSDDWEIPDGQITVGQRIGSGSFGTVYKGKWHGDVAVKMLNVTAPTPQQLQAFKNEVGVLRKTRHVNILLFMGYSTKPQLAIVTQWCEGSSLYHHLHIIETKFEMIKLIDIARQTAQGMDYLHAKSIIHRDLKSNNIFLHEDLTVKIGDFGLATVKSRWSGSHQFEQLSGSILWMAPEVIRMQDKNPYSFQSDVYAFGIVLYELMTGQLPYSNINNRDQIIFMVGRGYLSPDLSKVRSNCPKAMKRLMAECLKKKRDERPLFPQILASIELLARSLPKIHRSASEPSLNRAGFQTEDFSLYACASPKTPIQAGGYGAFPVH

SMILES | IC50 [1, 6] [nM] | IC50 [2, 7] [nM] | IC50 [3, 8] [nM] | IC50 [4, 9] [nM] | also measured
COCC(=O)Nc1cc(-c2cc(-c3cc(NC(=O)Nc4ccc(C(F)(F)F)nc4)ccc3C)cn(C)c2=O)ccn1 [Example 3, 2-methoxy-N-(1-methyl-5-(2-methyl-5-(3-(6-(trifluoromethyl)pyridin-3-yl)ureido)phenyl)-2-oxo-1,2-dihydro-[3,4′-bipyridin]-2′-yl)acetamide] | 100 to 500 | < 100 | 100 to 500 | – | –
CC(=O)Nc1cc(-c2cc(-c3cc(NC(=O)Nc4ccc(C(F)(F)F)nc4)ccc3C)cc(OCCO)n2)ccn1 [Example 5] | < 100 | < 100 | < 100 | – | –
CC(=O)Nc1cc(-c2cc(-c3cc(NC(=O)Nc4ccc(C(F)(F)F)nc4)cnc3C)ccn2)ccn1 [Example 6] | < 100 | < 100 | 500 to 1000 | 1000 to 10000 | –
CC(=O)Nc1cc(-c2cc(-c3cc(NC(=O)Nc4ccc(C(F)(F)F)nc4)ccc3C)cc(=O)n2C)ccn1 [Example 7] | < 100 | < 100 | 1000 to 10000 | 1000 to 10000 | –
CC(=O)Nc1cc(-c2cc(-c3cc(NC(=O)Nc4ccc(C(F)(F)F)nc4)ccc3C)nn(C)c2=O)ccn1 [Example 8] | 1000 to 10000 | 1000 to 10000 | 1000 to 10000 | 1000 to 10000 | –
Cc1ccc(NC(=O)Nc2ccc(C(F)(F)F)nc2)cc1-c1cc(-c2ccnc(NC(=O)CN(C)C)c2)c(=O)n(C)c1 [Example 11] | 100 to 500 | 100 to 500 | 500 to 1000 | 500 to 1000 | –
CC(=O)Nc1cc(-c2cncc(-c3cc(NC(=O)Nc4ccc(C(F)(F)F)nc4)ccc3C)n2)ccn1 [Example 12] | < 100 | < 100 | 100 to 500 | 100 to 500 | –
COCC(=O)Nc1cc(-c2cncc(-c3cc(NC(=O)Nc4ccc(C(F)(F)F)nc4)ccc3C)n2)ccn1 [Example 13] | < 100 | < 100 | 500 to 1000 | 500 to 1000 | –
Cc1ccc(NC(=O)Nc2ccc(C(F)(F)F)nc2)cc1-c1cncc(-c2ccnc(NC(=O)CC#N)c2)n1 [Example 14] | < 100 | < 100 | 1000 to 10000 | 1000 to 10000 | –
Cc1ccc(NC(=O)Nc2ccc(C(F)(F)F)nc2)cc1-c1cncc(-c2cc(NC(=O)C3CC3)ncn2)c1 [Example 15] | < 100 | < 100 | 500 to 1000 | – | –
Cc1ccc(NC(=O)Nc2ccc(C(F)(F)F)nc2)cc1-c1cncc(-c2cc(N)ncn2)c1 [Example 16] | < 100 | < 100 | 100 to 500 | – | –
CNC(=O)c1cc(-c2cncc(-c3cc(NC(=O)Nc4ccc(C(F)(F)F)nc4)ccc3C)c2)ncn1 [Example 21] | < 100 | < 100 | 100 to 500 | – | –
Cc1ccc(NC(=O)Nc2ccc(C)c(-c3cc(OCCO)nc(N4CCOCC4)c3)c2)cn1 [Example 23, 1-(3-(2-(2-hydroxyethoxy)-6-morpholinopyridin-4-yl)-4-methylphenyl)-3-(6-methylpyridin-3-yl)urea] | 100 to 500 | < 100 | < 100 | – | –
Cc1ccc(NC(=O)Nc2cnc(C(F)(F)F)nc2)cc1-c1cc(OCCO)nc(N2CCOCC2)c1 [Example 24, 1-(3-(2-(2-hydroxyethoxy)-6-morpholinopyridin-4-yl)-4-methylphenyl)-3-(2-(trifluoromethyl)pyrimidin-5-yl)urea] | 100 to 500 | < 100 | < 100 | – | IC50 ([1]; Table 3, read-out: BRAF IC50): 100 to 500 nM; IC50 ([2]; Table 3, read-out: CRAF IC50): 100 to 500 nM; IC50 ([3]; Table 3, read-out: MiaPaca-2 IC50): < 100 nM; IC50 ([4]; HCT-116, Table 3, read-out: HCT-116 IC50): < 100 nM
Cc1ccc(NC(=O)Nc2ccc(C(F)(F)F)nc2)cc1-c1cc(OC2CCNCC2)nc(N2CCOCC2)c1 [Example 25, 1-(4-methyl-3-(2-morpholino-6-(piperidin-4-yloxy)pyridin-4-yl)phenyl)-3-(6-(trifluoromethyl)pyridin-3-yl)urea] | 100 to 500 | < 100 | 100 to 500 | 500 to 1000 | –
Cc1ncc(NC(=O)Nc2ccc(C(F)(F)F)nc2)cc1-c1cc(OCCO)nc(N2CCOCC2)c1 [Example 26] | 1000 to 10000 | < 100 | < 100 | – | –
Cc1cc(F)c(NC(=O)Nc2ccc(C(F)(F)F)nc2)cc1-c1cc(OCCN(C)C)nc(N2CCOCC2)c1 [Example 27] | 500 to 1000 | 100 to 500 | 1000 to 10000 | – | –
Cc1ccc(NC(=O)Nc2cccnc2)cc1-c1cc(OCCO)nc(N2CCOCC2)c1 [Example 28] | 500 to 1000 | < 100 | 100 to 500 | 1000 to 10000 | –
Cc1ccc(NC(=O)Nc2ccc(C(F)(F)F)nc2)cc1-c1cc(-c2cnn(C)c2)nc(N2CCOCC2)c1 [Example 29] | < 100 | < 100 | < 100 | – | –
Cc1ccc(NC(=O)Nc2ccc(C(F)(F)F)nc2)cc1-c1cc(OCCN(C)C)nc(N2CCOCC2)c1 [Example 30] | 100 to 500 | < 100 | < 100 | – | –
Cc1ccc(NC(=O)Nc2ccc(C(F)(F)F)nc2)cc1-c1cc(N2CCOCC2)nc(N2CCN(C)CC2)c1 [Example 31] | 500 to 1000 | 100 to 500 | 100 to 500 | – | –
Cc1ccc(NC(=O)Nc2ccc(C(F)(F)F)nc2)cc1-c1cc(N2CCOCC2)nc(N2CCOCC2)c1 [Example 32] | < 100 | < 100 | < 100 | – | –
Cc1ccc(NC(=O)Nc2ccc(C(F)(F)F)nc2)cc1-c1cc(OCC2COC2)nc(N2CCOCC2)c1 [Example 33] | 100 to 500 | < 100 | < 100 | – | –
Cc1ccc(NC(=O)Nc2ccc(C(F)(F)F)nc2)cc1-c1cc(F)nc(N2CCOCC2)c1 [Example 35] | 1000 to 10000 | 1000 to 10000 | – | – | –
Cc1ccc(NC(=O)Nc2ccc(C(F)(F)F)nc2)cc1-c1cc(OCCO)nc(N2CCOCC2)c1 [Example 37] | 100 to 500 | < 100 | < 100 | < 100 | –
Cc1ccc(NC(=O)Nc2ccc(C(F)F)nc2)cc1-c1cc(OCCO)nc(N2CCOCC2)c1 [Example 38] | – | – | < 100 | – | –
Cc1ccc(NC(=O)Nc2ccc(C(F)(F)F)nc2)cc1-c1cc(OCCO)nc(-c2cn[nH]c2)c1 [Example 42] | < 100 | < 100 | < 100 | – | –
CC(=O)Nc1cc(-c2cc(-c3cc(NC(=O)NC4CCC(F)(F)CC4)c(F)cc3C)cc(OCCO)n2)ccn1 [reference compound] | – | – | – | – | IC50 ([4]; HCT-116, Table 4, read-out: HCT-116 IC50): 500 to 1000 nM; IC50 [5]: 500 to 1000 nM
